From patent US11279733B2, “Peptide antibiotics” (priority 2017, dated 2022)
Converted amounts (≈) assume the structure as drawn. Positions of bridges follow the written chain, without caps; N, C: chain ends. Non-standard residues stand in square brackets, D forms with d. Residues, ends and D or L forms follow the SMILES beside them. *: point of attachment. Decanoyl(3R-OH) = CCCCCCC[C@@H](O)CC(=O)*; dBip = N[C@H](Cc1ccc(-c2ccccc2)cc1)C(=O)O; dDab = NCC[C@@H](N)C(=O)O; Dab = NCC[C@H](N)C(=O)O; Dap = NC[C@H](N)C(=O)O

How the values were obtained:
A. baumannii ATCC 19606 = settings: ATCC 19606
Procedure, shortened: (§1)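 Mid-log cultures grown in Mueller Hinton broth at 37° C were tested by 2-fold broth microdilution at 5×10^5 CFU/mL final. Compounds were dissolved in water and tested over a final range of 32 to 0.015 μg/mL.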

A. baumannii GN_093 PmxR = settings: GN 093 PmxR
Procedure, shortened: as §1

E. coli ATCC 25922 = settings: ATCC 25922
Procedure, shortened: as §1

K. pneumoniae ATCC 13883 = settings: ATCC 13883
Procedure, shortened: as §1

[1] = system: K. pneumoniae ATCC 700603, MDR; settings: ATCC 700603
Procedure, shortened: as §1

[2] = system: K. pneumoniae ATCC BAA-2146, NDM-1 pos; settings: ATCC BAA-2146
Procedure, shortened: as §1

[3] = system: K. pneumoniae GN_102 PmxR; settings: GN 102 PmxR
Procedure, shortened: as §1

[4] = system: K. pneumoniae GN_106, PmxR; settings: GN 106, PmxR
Procedure, shortened: as §1

P. aeruginosa ATCC 27853 = settings: ATCC 27853
Procedure, shortened: as §1

[5] = system: P. aeruginosa GN_043, PmxR; settings: polymyxin-resistant
Procedure, shortened: as §1

[6] = system: P. aeruginosa GN_105, PmxR; settings: GN 105, PmxR
Procedure, shortened: as §1

[7] = system: S. aureus ATCC 25923, MSSA; settings: ATCC 25923
Procedure, shortened: as §1

in vitro = settings: human
Procedure, shortened: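 Cells were seeded at 4000 per well and allowed to attach for 24 h at 37 °C, 5% CO2, then exposed to compounds for 24 h. Resazurin (5 μM) was added for 2 h at 37 °C and fluorescence read at 560/590 nm. CC50 was derived by curve fitting of dose-dependent growth inhibition.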

[8] = In vitro nephrotoxicity, LDH release from primary human kidney cells; assay type: cell-based; settings: pH 7.4
Source text: (§2) hPT cells were derived from whole human kidneys procured by the International Institute for the Advancement of Medicine (Edison, N.J., USA). All tissue was scored by a pathologist as normal (i.e., derived from non-cancerous, non-diseased tissue). Cell isolation procedures were based on those originally described by Todd et al. (1996) and modified (Cummings and Lash, 2000; Cummings et al., 2000) with use of sterile conditions (i.e., all instruments and glassware were autoclaved and all buffers were filtered through a 0.2-μm pore-size filter). Renal cortex and outer stripe were cut into slices, washed with sterile PBS, minced, and the pieces were placed in a trypsinization flask filled with 300 ml of sterile, filtered Hanks' buffer, containing 25 mM NaHCO3, 25 mM HEPES, pH 7.4, 0.5 mM EGTA, 0.2% (w/v) bovine serum albumin, 50 μg/ml gentamicin, 1.3 mg/mL collagenase, and 0.59 mg/ml CaCl2), which was filtered prior to use. Whole kidneys were perfused with Wisconsin medium and kept on ice until they arrived at the laboratory, which was usually within 24 h of removal from the donor.
(§3) All buffers were continuously bubbled with 95% O2/5% CO2 and were maintained at 37° C. Minced cortical pieces from whole kidneys were subjected to collagenase digestion for 60 min, after which the supernatant was filtered through a 70-μm mesh filter to remove tissue fragments, centrifuged at 150×g for 7 min, and the pellet resuspended in Dulbecco's Modified Eagle's Medium: Ham's F12 Medium (DMEM/F12; 1/1). Approximately 5 to 7×10^6 cells were obtained per 1 g of human kidney cortical tissue.
(§4) hPT cells were resuspended in 2 mL of DMEM/F12 and diluted to 500 mL with cell culture medium, which was serum-free and hormonally-defined. Composition of this supplemented medium was based on earlier work establishing optimal conditions for primary culture of rat PT cells (Lash et al., 1995). Basal medium was a 1:1 mixture of DMEM/F12. […] Cells were seeded in a volume of 0.5 ml at a density of 50-100 μg protein per cm^2 (0.5-1.0×10^6 cells/ml) on 24-well plates. Cultures were grown at 37° C. in a humidified incubator under an atmosphere of 95% air/5% CO2 at pH 7.4. Cultures were grown to approximately 80%-90% confluence (generally 5-6 days) prior to experiments. Cells were harvested by either scraping the flasks with a Teflon scraper or by brief incubation with Cellstripper (Cellgro, Herndon, Va., USA) (in Ca^2+- and Mg^2+-free Hanks' buffer).

[9] = In vitro nephrotoxicity, GGT release from primary human kidney cells; assay type: cell-based; settings: pH 7.4
Source text: as §2, §3, §4
Release of gamm-glutanyltransferase was assessed according to Orlowski, M., Meister, A. 1963. γ-Glutamyl-p-nitroanilide: A new convenient substrate for determination and study of L- and D-γ-glutamyltranspeptidase activities (Biochim. Biophys. Acta 73: 679-681.)
A 2.5 mM substrate Solution was prepared from 67 mg γ-glutamyl-p-nitroanilide+264 mg glycylglycine in 100 mL of 0.05 M Tris, pH 8.2 (50 mM Tris, pH 8.2: 605 mg Tris/HCl per 100 mL).
For the assay in 96-well plates, 6-μL of sample and 0.3 mL substrate solution were added to each well. The absorbance was measured at 410 nm for the appearance of product, p-nitroanilide (molar extinction=8800 M^−1 cm^−1).

Neisseria gonorrhoeae = assay: MIC determination, Neisseria gonorrhoeae; assay type: cell-based; settings: strain FA19 ATCC BAA-1838
Procedure, shortened: as §1

Compound | CC50 [8] [µg/mL] | CC50 [9] [µg/mL] | MIC A. baumannii ATCC 19606 (A. baumannii ATCC 19606) [µg/mL] | MIC A. baumannii GN_093 PmxR (A. baumannii GN_093 PmxR) [µg/mL] | MIC E. coli ATCC 25922 (E. coli ATCC 25922) [µg/mL] | MIC K. pneumoniae ATCC 13883 (K. pneumoniae ATCC 13883) [µg/mL] | MIC K. pneumoniae ATCC 700603, MDR [1] [µg/mL] | MIC K. pneumoniae ATCC BAA-2146, NDM-1 pos [2] [µg/mL] | MIC K. pneumoniae GN_102 PmxR [3] [µg/mL] | MIC K. pneumoniae GN_106, PmxR [4] [µg/mL] | MIC P. aeruginosa ATCC 27853 (P. aeruginosa ATCC 27853) [µg/mL] | MIC P. aeruginosa GN_043, PmxR [5] [µg/mL] | MIC S. aureus ATCC 25923, MSSA [7] [µg/mL] | other results
CCCCCCC[C@@H](O)CC(=O)N[C@H](CCN)C(=O)N[C@H]1CCNC(=O)[C@H](CC(C)C)NC(=O)[C@H](CCN)NC(=O)[C@H](CN)NC(=O)[C@H](CC(C)C)NC(=O)[C@@H](Cc2ccccc2)NC(=O)[C@H](CCN)NC1=O [compound 990, 3(R)OH-nC9CO-D-Dab-cyc[L-Dab-L-Dab-D-Phe-L-Leu-L-Dap-L-Dab-L-Leu]] ({Decanoyl(3R-OH)}-[dDab][Dab][Dab][dF]L[Dap][Dab]L; lactam 2-C) | 87 (≈ 84.4 µM) | > 128 | – | – | – | – | – | – | – | – | – | – | – | MIC, A. baumannii ATCC 19606 (A. baumannii ATCC 19606): 8 µg/mL (≈ 7.76 µM); MIC, A. baumannii Cl Ptyela 10073 4512:2, PmxR (A. baumannii GN_093 PmxR): 16 µg/mL (≈ 15.5 µM); MIC, E. coli ATCC 25922 (E. coli ATCC 25922): 4 µg/mL (≈ 3.88 µM); MIC, K. pneumoniae ATCC 13883 (K. pneumoniae ATCC 13883): 4 µg/mL (≈ 3.88 µM); MIC, K. pneumoniae ATCC 700603, MDR [1]: 4 µg/mL (≈ 3.88 µM); MIC, K. pneumoniae ATCC BAA-2146, NDM-1 pos [2]: 4 µg/mL (≈ 3.88 µM); MIC, K. pneumoniae Cl Koprana 10065 0661:1, PmxR [3]: 4 µg/mL (≈ 3.88 µM); MIC, K. pneumoniae Cl 138-16347-20362, PmxR [4]: 4 µg/mL (≈ 3.88 µM); MIC, P. aeruginosa ATCC 27853 (P. aeruginosa ATCC 27853): 2 µg/mL (≈ 1.94 µM); MIC, P. aeruginosa FADDI-PA070, PmxR ([5]; Table 5): 2 µg/mL (≈ 1.94 µM); MIC, P. aeruginosa PA9704, PmxR [6]: 4 µg/mL (≈ 3.88 µM); MIC, S. Aureus ATCC 25923, MSSA [7]: 32 µg/mL (≈ 31.1 µM); CC50 at 24 h (in vitro): > 300 µM
CCCCCCC[C@@H](O)CC(=O)N[C@H](CCN)C(=O)N[C@H]1CCNC(=O)[C@H](CC(C)C)NC(=O)[C@H](CN)NC(=O)[C@H](CCN)NC(=O)[C@H](CC(C)C)NC(=O)[C@@H](Cc2ccc(-c3ccccc3)cc2)NC(=O)[C@H](CCN)NC1=O [compound 5383, 3(R)OH-nC9CO-D-Dab-cyc[L-Dab-L-Dab-D-Bip-L-Leu-L-Dab-L-Dap-L-Leu]] ({Decanoyl(3R-OH)}-[dDab][Dab][Dab][dBip]L[Dab][Dap]L; lactam 2-C) | > 128 | > 128 | 4 (≈ 3.62 µM) | 4 (≈ 3.62 µM) | 4 (≈ 3.62 µM) | 4 (≈ 3.62 µM) | 4 (≈ 3.62 µM) | 4 (≈ 3.62 µM) | 8 (≈ 7.23 µM) | 8 (≈ 7.23 µM) | 2 (≈ 1.81 µM) | 2 (≈ 1.81 µM) | 2 (≈ 1.81 µM) | MIC P. aeruginosa GN_105, PmxR [6]: 2 µg/mL (≈ 1.81 µM)
CCCCCCC[C@@H](O)CC(=O)N[C@H](CCN)C(=O)N[C@H]1CCNC(=O)[C@H](CC(C)C)NC(=O)[C@H](CCCNC(=N)N)NC(=O)[C@H](CCN)NC(=O)[C@H](CC(C)C)NC(=O)[C@@H](Cc2ccccc2)NC(=O)[C@H](CCN)NC1=O [compound 8643, 3(R)OH-nC9CO-D-Dab-cyc[L-Dab-L-DAB-D-Phe-L-Leu-L-Dab-L-Arg-L-Leu]] ({Decanoyl(3R-OH)}-[dDab][Dab][Dab][dF]L[Dab]RL; lactam 2-C) | > 128 | > 128 | 4 (≈ 3.63 µM) | 16 (≈ 14.5 µM) | 1 (≈ 0.909 µM) | 2 (≈ 1.82 µM) | 2 (≈ 1.82 µM) | 2 (≈ 1.82 µM) | 2 (≈ 1.82 µM) | 2 (≈ 1.82 µM) | 2 (≈ 1.82 µM) | 2 (≈ 1.82 µM) | 16 (≈ 14.5 µM) | MIC N. gonorrhoeae FA19 ATCC BAA-1838 (Neisseria gonorrhoeae): 1.56 µg/mL (≈ 1.42 µM)
